Source: patent publication US20250084043A1, “FORMULATION OF METAXALONE” (iCeutica Inc., priority 2013, published 2025)
Like-named read-outs stand apart in the source and are kept apart here.

Columns and labels:
[1] = cited from earlier work
[2] = Particle size distribution, Malvern Mastersizer 3000 laser particle size analyzer; assay type: physicochemical; conditions: aqueous dispersing medium
Procedure: Submicron sized metaxalone drug particles were prepared by dry milling metaxalone drug substance (40%) together with lactose monohydrate and sodium lauryl sulfate in an attritor mill containing stainless steel grinding media. The total batch size was approximately 1 kg. Milled powder was discharged out the bottom of the mill and collected for analysis and further processing. […] Table 1, below, includes size data for the milled and unmilled metaxalone.

- D[4, 3] [2]: 47.3 μm
- Dv10 [2]: 16.0 μm
- Dv50 [2]: 43.3 μm
- Dv90 [2]: 81.8 μm
- Specific Surface Area [2]: 199.7 m^2/kg
SMILES: Cc1cc(C)cc(OCC2CNC(=O)O2)c1 (stereo not shown) [Metaxalone]
- solubility ([1]; 96% ethanol): soluble
- solubility ([1]; chloroform): freely soluble
- solubility ([1]; ether): practically insoluble
- solubility ([1]; methanol): soluble
- solubility ([1]; water): practically insoluble
